Data published in the NIST ThermoML archive (doi:10.1016/j.fluid.2007.07.066).

Test: wn = mass fraction of the nth substance listed
Settings: 101 kPa, Liquid; for speed of sound: Sing-around technique in a fixed-path interferometer

CCCO [propan-1-ol] + O
Settings	mass density, 283.15 K [kg/m3]	mass density, 288.15 K [kg/m3]	mass density, 293.15 K [kg/m3]	mass density, 298.15 K [kg/m3]	mass density, 303.15 K [kg/m3]	speed of sound, 283.15 K [m/s]	speed of sound, 288.15 K [m/s]	speed of sound, 293.15 K [m/s]	speed of sound, 298.15 K [m/s]	speed of sound, 303.15 K [m/s]
w1 = 0.05	992.444	991.727	990.715	989.431	987.905	1501.2	1514.5	1526.2	1536.2	1544.7
w1 = 0.1	987.274	986.285	985.011	983.475	981.701	1547.4	1555.6	1562.4	1568	1572.2
w1 = 0.15	983.045	981.663	980.011	978.117	976.004	1584	1586.5	1588.1	1588.6	1588.1
